2 compounds from ChEMBL document CHEMBL1629561, “Inhibition of Bacillus anthracis spore outgrowth by nisin” (Antimicrob Agents Chemother, 2008) can be followed below.

Experiment [1] concerns Bacillus anthracis. Description: Antibacterial activity against Bacillus anthracis spores assessed as inhibition of growth of replicating vegetative bacteria at 1 uM after 5 hrs. Format: functional, organism-based.
In experiment [2] the test system is Bacillus anthracis. Put plainly: Antibacterial activity against Bacillus anthracis spores assessed as reduction in membrane potential at 0.01 uM. Format: functional, organism-based.
For experiment [3], the system named is Bacillus anthracis. Description: Antibacterial activity against Bacillus anthracis spores assessed as loss of membrane integrity at 10 uM by flow cytometry relative to control. Format: functional, organism-based. (In general: A flow cytometer gives signals particle by particle.)
For experiment [4], the system named is Bacillus anthracis. Description: Antibacterial activity against Bacillus anthracis spores assessed as reduction in membrane potential at 10 uM. Format: functional, organism-based.
Experiment [5] has as its system Bacillus anthracis. Put plainly: Antibacterial activity against Bacillus anthracis spores assessed as reduction in membrane potential at 0.1 uM. Format: functional, organism-based.
Experiment [6] deals with Bacillus anthracis. Description: Antibacterial activity against Bacillus anthracis spores assessed as loss of membrane integrity at 1 uM by flow cytometry relative to control. Format: functional, organism-based.
Experiment [7] has as its system Bacillus anthracis. Put plainly: Antibacterial activity against Bacillus anthracis spores assessed as loss of membrane integrity at 0.1 uM by flow cytometry relative to control. Format: functional, organism-based.
For experiment [8], the system named is Bacillus anthracis. Description: Antibacterial activity against Bacillus anthracis spores assessed as reduction in membrane potential at 1 uM. Format: functional, organism-based.
Experiment [9] has as its system Bacillus anthracis. Put plainly: Antibacterial activity against Bacillus anthracis spores assessed as loss of membrane integrity at 0.01 uM by flow cytometry relative to control. Format: functional, organism-based.
The subject of experiment [10] is Bacillus anthracis. Put plainly: Antibacterial activity against Bacillus anthracis spores assessed as reduction in membrane potential at 0.1 uM after 5 hrs by flow cytometry. Format: functional, organism-based.
Experiment [11] relates to Bacillus anthracis. Description: Antibacterial activity against Bacillus anthracis spores assessed as reduction in membrane potential at 10 uM after 10 hrs by flow cytometry. Format: functional, organism-based.
The subject of experiment [12] is Bacillus anthracis. Description: Antibacterial activity against Bacillus anthracis assessed as effect on germination initiation-associated loss in spore heat resistance after 5 mins by spectroscopy. Format: functional.
Experiment [13] deals with Bacillus anthracis. Description: Antibacterial activity against Bacillus anthracis spores assessed as inhibition of growth of replicating vegetative bacteria at 10 uM. Format: functional, organism-based.
Experiment [14] relates to Bacillus anthracis. Description: Antibacterial activity against Bacillus anthracis spores assessed as inhibition of growth of replicating vegetative bacteria at 100 uM. Format: functional, organism-based.
Experiment [15] concerns Bacillus anthracis. Put plainly: Antibacterial activity against Bacillus anthracis spores assessed as inhibition of growth of replicating vegetative bacteria at 1 uM. Format: functional, organism-based.
Experiment [16] relates to Bacillus anthracis. Description: Antibacterial activity against Bacillus anthracis assessed as effect on hydration of spore structure-associated loss in refractility after 10 min by spectroscopy. Format: functional.
Experiment [17] deals with Bacillus anthracis. Description: Antibacterial activity against Bacillus anthracis spores assessed as loss of exosporium by transmission electron microscopy. Format: functional, organism-based.
Experiment [18] has as its system Bacillus anthracis. Put plainly: Antibacterial activity against Bacillus anthracis spores assessed as decrease in spore germination initiation at 10 uM preincubated with germination medium measured after 18 hrs. Format: functional, organism-based.
For experiment [19], the system named is Bacillus anthracis. Put plainly: Antibacterial activity against Bacillus anthracis spores assessed as inhibition of growth of replicating vegetative bacteria at 0.1 uM after 50 minutes. Format: functional, organism-based.
The test system of experiment [20] is Bacillus anthracis. Description: Antibacterial activity against Bacillus anthracis spores assessed as inhibition of spore germination at 10 uM preincubated for 5 mins with germinating medium measured after 18 hrs. Format: functional, organism-based.
Experiment [21] has as its system Bacillus anthracis. Description: Antibacterial activity against Bacillus anthracis spores assessed as loss of spore coat by transmission electron microscopy. Format: functional, organism-based.
Experiment [22] relates to Bacillus anthracis. Put plainly: Antibacterial activity against Bacillus anthracis spores assessed as reduction in membrane potential at 100 uM after 10 hrs by flow cytometry. Format: functional, organism-based.
Experiment [23] relates to Bacillus anthracis. Put plainly: Antibacterial activity against Bacillus anthracis spores assessed as reduction in membrane potential at 0.1 uM after 10 hrs by flow cytometry. Format: functional, organism-based.
The test system of experiment [24] is Bacillus anthracis. Description: Antibacterial activity against Bacillus anthracis spores assessed as reduction in membrane potential at 1 uM after 10 hrs by flow cytometry. Format: functional, organism-based.
Experiment [25] has as its system Bacillus anthracis. Description: Antibacterial activity against Bacillus anthracis spores assessed as reduction in membrane potential at 1 uM after 5 hrs by flow cytometry. Format: functional, organism-based.
For experiment [26], the system named is Bacillus anthracis. Put plainly: Antibacterial activity against Bacillus anthracis assessed as effect on spore germination initiation after 5 mins by spectroscopy in presence of 0.1 M MOPS nongerminating condition. Format: functional, organism-based.
Experiment [27] has as its system Bacillus anthracis. Put plainly: Antibacterial activity against Bacillus anthracis spores assessed as reduction in membrane potential at 10 uM after 5 hrs by flow cytometry. Format: functional, organism-based.
Experiment [28] deals with Bacillus anthracis. Put plainly: Antibacterial activity against Bacillus anthracis spores assessed as reduction in membrane potential at 100 uM after 5 hrs by flow cytometry. Format: functional, organism-based.
In experiment [29] the test system is Bacillus anthracis. Description: Antibacterial activity against Bacillus anthracis spores assessed as loss of membrane integrity at 100 uM by flow cytometry relative to control. Format: functional, organism-based.
The test system of experiment [30] is Bacillus anthracis. Put plainly: Antibacterial activity against Bacillus anthracis spores assessed as loss of spore cortex by transmission electron microscopy. Format: functional, organism-based.

Activity calls are given as the source filed them. The calls are words filed in the database; no cut-off is given here.

Consider `O=C(O)c1cn(C2CC2)c2cc(N3CCNCC3)c(F)cc2c1=O`, for which, in the experiment with Bacillus anthracis [1], the inhibition entry is “inactive”. Besides, the outcome with Bacillus anthracis [2], in the experiment with Bacillus anthracis [4], in the experiment with Bacillus anthracis [5] and in the experiment on Bacillus anthracis [8] was inactive. Besides, the result in the experiment with Bacillus anthracis [3], with Bacillus anthracis [6], with Bacillus anthracis [7] and in the experiment on Bacillus anthracis [9] was Active.
Turning to `C=C(NC(=O)[C@@H](NC(=O)[C@H](Cc1cnc[nH]1)NC(=O)[C@@H](NC(=O)[C@H](CO)NC(=O)[C@@H]1CS[C@@H](C)[C@H]2NC(=O)C(=C)NC(=O)[C@H](NC(=O)[C@H](CCCCN)NC(=O)[C@H](CCSC)NC(=O)[C@H](CC(N)=O)NC(=O)[C@@H]3CS[C@@H](C)[C@@H](NC(=O)[C@H](CCCNN)NC(=O)[C@@H]4CS[C@@H](C)[C@@H](NC(=O)[C@@H]5CSC[C@@H](NC(=O)/C(=C\C)NC(=O)[C@@H](N)[C@@H](C)CC)C(=O)N[C@@H]([C@@H](C)CC)C(=O)NC(=C)C(=O)N[C@@H]([C@@H](C)CC)C(=O)N5)C(=O)N5CCC[C@H]5C(=O)NCC(=O)N4)C(=O)NCC(=O)N[C@@H](C)C(=O)N[C@@H]([C@@H](C)CC)C(=O)N[C@@H](CCSC)C(=O)NCC(=O)N3)[C@H](C)SC[C@H](NC2=O)C(=O)N[C@H](Cc2cnc[nH]2)C(=O)N1)[C@@H](C)CC)C(C)C)C(=O)N[C@@H](CCCCN)C(=O)O` [NISIN], the inhibition result in the experiment with Bacillus anthracis [10] and with Bacillus anthracis [23] was “inactive” each time. The result with Bacillus anthracis [11], in the experiment with Bacillus anthracis [3], in the experiment on Bacillus anthracis [6], in the experiment on Bacillus anthracis [7], with Bacillus anthracis [22] and with Bacillus anthracis [24] was Active. Also, the result in the experiment on Bacillus anthracis [25], in the experiment on Bacillus anthracis [27], with Bacillus anthracis [28] and in the experiment with Bacillus anthracis [29] was Active. The Activity in the experiment with Bacillus anthracis [12] is on record as over 80%; in the experiment with Bacillus anthracis [16] it was over 65%. Further, the “growth inhibition (GI)” value in the experiment on Bacillus anthracis [13], in the experiment with Bacillus anthracis [14], in the experiment with Bacillus anthracis [15] and with Bacillus anthracis [19] was “Active” each time. The outcome in the experiment on Bacillus anthracis [17], with Bacillus anthracis [21], in the experiment with Bacillus anthracis [26] and with Bacillus anthracis [30] was inactive. For the same compound, the inhibition result with Bacillus anthracis [18] and in the experiment with Bacillus anthracis [20] was “Active” each time.
